Results taken from PubChem BioAssay (NCI).
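Five compound concentrations were applied to cells in 96-well plates for 48 hours; endpoints were derived by simple linear interpolation of the resulting dose-response curve. Abbreviation: GI50, concentration required for 50% inhibition of growth. TGI: total growth inhibition.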

What was measured:
Assay in all cases: NCI-60 cell line screen, 48 h
[1] = system: HCT-15 colon
[2] = system: MCF7 breast
[3] = system: RPMI-8226 leukemia
[4] = system: SK-MEL-5 melanoma
[5] = system: OVCAR-5 ovarian
[6] = system: NCI/ADR-RES ovarian
[7] = system: A498 renal
[8] = system: NCI-H23 lung
[9] = system: NCI-H522 lung
[10] = system: MDA-MB-435
[11] = system: HT29 colon
[12] = system: RXF 393 renal
[13] = system: DU-145 prostate
[14] = system: A549 NSCLC
[15] = system: SN12C renal
[16] = system: ACHN renal
[17] = system: HS 578T breast
[18] = system: HOP-92 NSCLC
[19] = system: SF-268 CNS
[20] = system: LOX IMVI melanoma
[21] = system: TK-10 renal
[22] = system: U251 CNS
[23] = system: K-562 leukemia
[24] = system: HOP-62 NSCLC
[25] = system: MALME-3M melanoma
[26] = system: SNB-19 CNS
[27] = system: COLO 205 colon
[28] = system: T-47D breast
[29] = system: UACC-62 melanoma
[30] = system: HL-60(TB) leukemia
[31] = system: SF-295 CNS
[32] = system: OVCAR-4 ovarian
[33] = system: CCRF-CEM leukemia
[34] = system: IGROV1 ovarian
[35] = system: BT-549 breast
[36] = system: 786-0 renal
[37] = system: NCI-H226 lung
[38] = system: PC-3 prostate
[39] = system: OVCAR-8 ovarian
[40] = system: SR leukemia
[41] = system: SK-MEL-28 melanoma
[42] = system: SW-620 colon
[43] = system: OVCAR-3 ovarian
[44] = system: MOLT-4 leukemia
[45] = system: KM12 colon
[46] = system: UACC-257 melanoma
[47] = system: MDA-MB-468 breast
[48] = system: SF-539 CNS
[49] = system: NCI-H460 lung
[50] = system: CAKI-1 renal
[51] = system: HCC-2998 colon
[52] = system: SK-OV-3 ovarian
[53] = system: M14 melanoma
[54] = system: EKVX NSCLC
[55] = system: UO-31 renal
[56] = system: SNB-75 CNS
[57] = system: HCT-116 colon
[58] = system: MDA-MB-231 breast
[59] = system: SK-MEL-2 melanoma

For `O=C(Nc1cc(Cl)cc(Cl)c1)Nc1cc(Cl)cc(Cl)c1`, the GI50 [1] was 2.18 µM, the TGI [1] was > 100 µM and the GI50 [2] was 2.28 µM. The TGI [2] was 7.37 µM, the GI50 [3] was 0.861 µM and the TGI [3] was 3.97 µM. The GI50 [4] was 1.74 µM, the TGI [4] was 3.28 µM and the GI50 [5] was 2.91 µM. For the same compound, the TGI [5] was > 100 µM, the GI50 [6] was 2.17 µM and the TGI [6] was 8.41 µM. It also gave a GI50 [7] of 2.24 µM, a TGI [7] of 6.51 µM and a GI50 [8] of 1.86 µM. The TGI [8] was 5.55 µM, the GI50 [9] was 1.23 µM and the TGI [9] was 5.22 µM. The GI50 [10] was 3.11 µM, the TGI [10] was > 100 µM and the GI50 [11] was 2.88 µM. It also gave a TGI [11] of 14.9 µM, a GI50 [12] of 2.56 µM and a TGI [12] of 8.66 µM. For the same compound, the GI50 [13] was 3.89 µM, the TGI [13] was > 100 µM and the GI50 [14] was 2.02 µM. For the same compound, the TGI [14] was > 100 µM, the GI50 [15] was 2.66 µM and the TGI [15] was 9.92 µM. For the same compound, the GI50 [16] was 2.75 µM, the TGI [16] was > 100 µM and the GI50 [17] was 2.69 µM. The TGI [17] was 8.47 µM, the GI50 [18] was 1.99 µM and the TGI [18] was 6.02 µM. The GI50 [19] was 3.31 µM, the TGI [19] was > 100 µM and the GI50 [20] was 2.1 µM. For the same compound, the TGI [20] was 4.54 µM, the GI50 [21] was 3.27 µM and the TGI [21] was > 100 µM. The GI50 [22] was 2.75 µM, the TGI [22] was 11.5 µM and the GI50 [23] was 2.5 µM. The TGI [23] was 12.8 µM, the GI50 [24] was 2.61 µM and the TGI [24] was 8.74 µM. It also gave a GI50 [25] of 1.92 µM, a TGI [25] of 5.13 µM and a GI50 [26] of 3.05 µM. For the same compound, the TGI [26] was > 100 µM, the GI50 [27] was 1.99 µM and the TGI [27] was 3.5 µM. For the same compound, the GI50 [28] was 3.04 µM, the TGI [28] was > 100 µM and the GI50 [29] was 2.48 µM. It also gave a TGI [29] of 14.3 µM, a GI50 [30] of 1.57 µM and a TGI [30] of 4.07 µM. The GI50 [31] was 1.74 µM, the TGI [31] was 4.4 µM and the GI50 [32] was 3.54 µM. For the same compound, the TGI [32] was > 100 µM, the GI50 [33] was 2.55 µM and the TGI [33] was 8.04 µM. For the same compound, the GI50 [34] was 3.52 µM, the TGI [34] was > 100 µM and the GI50 [35] was 2.45 µM. For the same compound, the TGI [35] was 7.85 µM, the GI50 [36] was 3 µM and the TGI [36] was > 100 µM. The GI50 [37] was 2.95 µM, the TGI [37] was > 100 µM and the GI50 [38] was 2.42 µM. For the same compound, the TGI [38] was > 100 µM, the GI50 [39] was 2.9 µM and the TGI [39] was > 100 µM. For the same compound, the GI50 [40] was 1.72 µM, the TGI [40] was 4.1 µM and the GI50 [41] was 2.75 µM. For the same compound, the TGI [41] was > 100 µM, the GI50 [42] was 3.4 µM and the TGI [42] was > 100 µM. The GI50 [43] was 2.92 µM, the TGI [43] was > 100 µM and the GI50 [44] was 1.82 µM. The TGI [44] was 4.42 µM, the GI50 [45] was 2.97 µM and the TGI [45] was 9.44 µM. The GI50 [46] was 2.35 µM, the TGI [46] was 6.42 µM and the GI50 [47] was 2.27 µM. For the same compound, the TGI [47] was 6.48 µM, the GI50 [48] was 2.26 µM and the TGI [48] was 6.07 µM. The GI50 [49] was 2.11 µM, the TGI [49] was > 100 µM and the GI50 [50] was 2.79 µM. The TGI [50] was > 100 µM, the GI50 [51] was 3.13 µM and the TGI [51] was > 100 µM. The GI50 [52] was 2.4 µM and the TGI [52] was 6.31 µM.
Work on `CC1(c2ccccc2)NC(=O)N(CC(=O)Nc2ccc(C(=O)/C=C/c3ccccc3)cc2)C1=O` (configuration not stated) yielded a GI50 [1] of 14.2 µM, a TGI [1] of 35.3 µM and a GI50 [2] of 3.15 µM. It also gave a TGI [2] of 14 µM, a GI50 [3] of 2.27 µM and a TGI [3] of 6.85 µM. It also gave a GI50 [53] of 9.54 µM, a TGI [53] of 22.7 µM and a GI50 [4] of 7.59 µM. For the same compound, the TGI [4] was 20.4 µM, the GI50 [5] was 16.5 µM and the TGI [5] was 36.6 µM. It also gave a GI50 [6] of 21.8 µM, a TGI [6] of 82.3 µM and a GI50 [7] of 14.2 µM. The TGI [7] was 28.7 µM, the GI50 [8] was 13.9 µM and the TGI [8] was 28.9 µM. For the same compound, the GI50 [9] was 11.1 µM, the TGI [9] was 27.4 µM and the GI50 [10] was 3.11 µM. For the same compound, the TGI [10] was 13.5 µM, the GI50 [11] was 7.82 µM and the TGI [11] was 24.6 µM. The GI50 [12] was 5.81 µM, the TGI [12] was 21.6 µM and the GI50 [13] was 13.7 µM. It also gave a TGI [13] of 28.9 µM, a GI50 [14] of 10.8 µM and a TGI [14] of 27.7 µM. The GI50 [15] was 11.5 µM, the TGI [15] was 35 µM and the GI50 [16] was 13.2 µM. The TGI [16] was 31 µM, the GI50 [17] was 20.5 µM and the TGI [17] was > 100 µM. It also gave a GI50 [18] of 9.31 µM, a TGI [18] of 69.2 µM and a GI50 [54] of 7.62 µM. For the same compound, the TGI [54] was 33 µM, the GI50 [19] was 12.4 µM and the TGI [19] was 48.6 µM. The GI50 [20] was 7.56 µM, the TGI [20] was 20.8 µM and the GI50 [21] was 17.8 µM. For the same compound, the TGI [21] was 68.2 µM, the GI50 [22] was 6.17 µM and the TGI [22] was 21.3 µM. For the same compound, the GI50 [23] was 4.03 µM, the TGI [23] was > 100 µM and the GI50 [55] was 10.3 µM. It also gave a TGI [55] of 23.9 µM, a GI50 [24] of 18.2 µM and a TGI [24] of 53.5 µM. For the same compound, the GI50 [56] was 3 µM, the TGI [56] was 41.7 µM and the GI50 [25] was 15 µM. The TGI [25] was 38.9 µM, the GI50 [26] was 14 µM and the TGI [26] was 35.6 µM. The GI50 [27] was 14.2 µM, the TGI [27] was 29.6 µM and the GI50 [28] was 3.17 µM. It also gave a TGI [28] of 29.2 µM, a GI50 [29] of 6.52 µM and a TGI [29] of 23 µM. The GI50 [30] was 12.3 µM, the TGI [30] was 68.3 µM and the GI50 [31] was 11.9 µM. It also gave a TGI [31] of 26.3 µM, a GI50 [32] of 13.3 µM and a TGI [32] of 96.3 µM. For the same compound, the GI50 [33] was 5.76 µM, the TGI [33] was 41.3 µM and the GI50 [34] was 12.9 µM. The TGI [34] was 27.7 µM, the GI50 [35] was 8.21 µM and the TGI [35] was 21.6 µM. The GI50 [36] was 13.7 µM, the TGI [36] was 27.4 µM and the GI50 [37] was 15.8 µM. The TGI [37] was 78.1 µM, the GI50 [38] was 7.74 µM and the TGI [38] was 51.9 µM. It also gave a GI50 [39] of 16.8 µM, a TGI [39] of 64.3 µM and a GI50 [40] of 3.1 µM. For the same compound, the TGI [40] was > 100 µM, the GI50 [41] was 14.3 µM and the TGI [41] was 29.1 µM. For the same compound, the GI50 [42] was 15.1 µM, the TGI [42] was 34.9 µM and the GI50 [43] was 11.8 µM. For the same compound, the TGI [43] was 26.8 µM, the GI50 [44] was 7.1 µM and the TGI [44] was 57.1 µM. The GI50 [45] was 4.94 µM, the TGI [45] was 26.8 µM and the GI50 [46] was 13.1 µM. For the same compound, the TGI [46] was 27.4 µM, the GI50 [57] was 1.63 µM and the TGI [57] was 3.35 µM. It also gave a GI50 [58] of 11.7 µM, a TGI [58] of 30.9 µM and a GI50 [47] of 5.7 µM. It also gave a TGI [47] of 20.6 µM, a GI50 [48] of 12.9 µM and a TGI [48] of 25.9 µM. For the same compound, the GI50 [49] was 15.5 µM, the TGI [49] was 41 µM and the GI50 [59] was 12.8 µM. For the same compound, the TGI [59] was 33.9 µM, the GI50 [50] was 11.5 µM and the TGI [50] was 29.6 µM. For the same compound, the GI50 [51] was 4.25 µM, the TGI [51] was 14.3 µM and the GI50 [52] was 17.9 µM. It also gave a TGI [52] of 52.2 µM.
